Results as given in patent publication US20260000685A1, “PHARMACEUTICAL COMPOSITION FOR PREVENTING OR TREATING DEGENERATIVE BRAIN DISEASES, COMPRISING CANNABINOIDS AS ACTIVE INGREDIENT, AND USES THEREOF” (NEOCANNBIO CO., LTD., priority 2022, published 2026).

How the values were obtained:
amyloid beta (Aβ) = assay: Western blotting of Aβ expression in Aβ1-42-treated primary neuronal cells; type: cell-based, ICR mice; conditions: with Aβ1-42 (5 μM), 24 hours; compared to Aβ1-42 alone; FIG. 5
Method: Specifically, primary neuronal cells derived from ICR mice were cultured for 6 days, and then treated with CBDA, THCA, THC, or CBN compounds while treating with Aβ1-42 (5 μM), and treated together for 24 hours. Next, Western blotting was conducted to confirm the expression levels of APP (Amyloid Precursor Protein), polymeric Aβ, and oligomeric AB in the cells.
(§1) To conduct Western blotting, tissues were homogenized in radioimmunoprecipitation assay buffer (Cell Signaling) to acquire tissue lysates. Tissue protein concentrations were determined using the Bio-Rad protein assay (Bio-Rad, Hercules, CA, USA), and Western blot analysis was conducted using 80-120 μg of protein. Next, the Western blotting samples prepared using the proteins were separated using 12% SDS-PAGE and transferred to a polyvinylidene fluoride membrane (PVDF) (Merck Millipore, Burlington, MA, USA; 0.4 μm). The PVDF was blocked with tris-buffered saline including 5% bovine serum albumin and Tween-20, and incubated with primary antibodies overnight at 4° C. After primary antibody incubation, the samples were incubated with HRP-conjugated secondary antibody (Sigma; 1:5000) for 1 hour at room temperature, and immunodetection was conducted using an enhanced chemiluminescence detection kit (GE Healthcare, Chicago, IL, USA).

[1] = test system: primary cortical neuron cells; assay: Intracellular calcium concentration in neuronal cells (fluo-4 AM fluorescence imaging); type: cell-based; conditions: CBDA (6.25 μM), THCA (12.5 μM), THC (12.5 μM) with Aβ1-42 (5 μM), 24 hours; compared to Aβ1-42 alone; FIG. 8 and 9
Method: Specifically, primary cortical neuron cells were seeded in 96-wells at 5×10^5 cells per well and cultured for 6 days. […] Next, to measure the concentration of calcium ions in neuronal cells by detecting Ca^2+ using fluorescence imaging, the cells were washed with PBS and treated with 10 μM Ca^2+ indicator fluo-4 AM (Thermo) for […]. The stained sections were washed with PBS, covered with Prolong Gold Antifide Reagent (Invitrogen, Carlsbad, CA, USA) including DAPI nuclear stain, and observed using a microscope (Carl Zeiss, Oberkochen, Germany). Fluo-4 AM fluorescence signal intensity was measured using the Image J analysis program (National Institute of Health, Bethesda, […], USA).

primary neuronal cells = assay: Inhibition of Aβ1-42-induced neuron apoptosis (MTS cell viability); type: cell-based, ICR mice; conditions: different concentrations with Aβ1-42 (5 μM), 24 hours; compared to control treated with Aβ1-42 alone; FIG. 2
Method: Specifically, primary neuronal cells derived from ICR mice were seeded in 96-wells at 5×10^5 cells per well and cultured for 6 days. Afterwards, the six compounds of Example 1 above were treated at different concentrations and Aβ1-42 (5 μM) was treated to induce neuron apoptosis, and the cells were treated together for 24 hours. Afterwards, a MTS solution was added to the medium and incubated for 2 hours. Cytotoxicity (cell viability) was measured using a microplate spectrophotometer (Bio-Tek Power Wave XS, Winooski, VT, USA), and absorbance was measured at 490 nm.
Next, the neuron apoptosis inhibition efficacy for the same concentration of CBDA, CBD, THCA and THC was evaluated using the same method as above. Memantine, known as an Alzheimer's treatment, was used as a positive control group.

[2] = test system: phosphorylated tau (p-Tau); assay: Western blotting of Tau/p-Tau in Aβ1-42-treated primary neuronal cells; type: cell-based, ICR mice; conditions: with Aβ1-42 (5 μM), 24 hours; compared to Aβ1-42 alone; FIG. 7
Method: as §1
Specifically, primary neuronal cells derived from ICR mice were cultured for 6 days, and then treated with CBDA, THCA, THC, or CBN compounds while treating with Aβ1-42 (5 μM), and treated together for 24 hours. Next, to confirm the expression levels of Tau and phosphorylated Tau (p-Tau) in the cells, Western blotting was conducted using the method disclosed in Example 4 above.

SMILES | expression level of AB (amyloid beta (Aβ)) | intracellular calcium ion concentration [1] | cell survival rate level (primary neuronal cells) | expression level of p-Tau [2] | phosphorylation level of p-Tau [2]
CCCCCc1cc(O)c2c(c1)OC(C)(C)[C@@H]1CCC(C)=C[C@@H]21 [THC, (6aR, 10aR)-delta-9-Tetrahydrocannabinol] | significantly reduced | significantly reduced | significantly increased | significantly reduced | significantly reduced
CCCCCc1cc(O)c2c(c1)OC(C)(C)c1ccc(C)cc1-2 [CBN, 6,6,9-Trimethyl-3-pentyl-benzo[c]chromen-1-ol] | significantly reduced | – | significantly increased | – | not
